Data reported in article PMC5986712, “Aminobenzothiazole derivatives stabilize the thermolabile p53 cancer mutant Y220C and show anticancer activity in p53-Y220C cell lines” (European Journal of Medicinal Chemistry, 2018).

Legend:
[1] = Solubility (qualitative observation); format: physicochemical
[2] = tested on: WI38 cells (non-cancerous fibroblast, p53 WT); experiment: Cell viability assay, WI38; conditions: Homo sapiens, WI-38, 72 h, read-out: IC50 WI38
Description: (§3) All cell lines were cultured as previously described [9]. Cell viability was measured in quadruplicate (technical replicates) using the CellTiter-Fluor or CellTiter-Glo 2.0 cell viability assay kits (Promega, USA) as previously described [9].

NUGC3 cells (p53-Y220C) = experiment: Cell viability assay (CellTiter-Fluor / CellTiter-Glo 2.0), NUGC3; format: cell-based, human; conditions: Homo sapiens, NUGC-3; 72 h, Y220C cell line
Description: (§1) We also envisaged that masking the carboxylate of MB710 as a simple ethylamide MB725 might influence cell permeability and uptake of the scaffold.
(§2) All cell lines were cultured as previously described. Cell viability was measured in quadruplicate (technical replicates) using the CellTiter-Fluor or CellTiter-Glo 2.0 cell viability assay kits (Promega, USA) as previously described.

[3] = tested on: NUGC4 cells (wild-type p53); experiment: Cell viability assay, NUGC4; format: cell-based; conditions: Homo sapiens, NUGC-4; 72 h, p53 WT
Description: as §1, §2

BXPC-3 cells (p53-Y220C) = experiment: Cell viability assay, BXPC3; conditions: Homo sapiens, BXPC-3, 72 h, read-out: IC50 BXPC3
Description: as §3

[4] = molecular target: T1, stabilized p53-Y220C DBD (residues 94–312) (Homo sapiens, UniProt P04637, M133L/N239Y/N268D/V203A/Y220C); experiment: Differential scanning fluorimetry (DSF), thermal stabilization of Y220C; format: binding; conditions: 8 μM protein, 10 × SYPRO Orange, 250 μM ligand
T1 construct: Stabilized p53-Y220C DBD (residues 94–312) was expressed and purified; 6xHis / lipoyl domain / TEV protease cleavage site (N, cleaved yes); made in house; host or cells: E. coli C41
Description: DSF was performed as described. […] All samples were measured in triplicate.

[5] = molecular target: T1, stabilized p53-Y220C DBD (residues 94–312); experiment: Isothermal titration calorimetry (ITC); format: binding; conditions: for Kd: ITC
Description: Isothermal Titration Calorimetry (ITC). ITC experiments were conducted as described. The cell unit contained 50 μM protein in a 25 mM KPi (pH 7.2), 150 mM NaCl, 1 mM TCEP, and 5% (v/v) DMSO assay buffer. The syringe contained 2–5 mM compound in the same buffer.

p53 cancer mutant Y220C = experiment: Binding affinity to the Y220C pocket, values taken from earlier papers (ITC/NMR); conditions: Kd ratio
SW1088 cells (p53-R273C) = experiment: Cell viability assay, SW1088; conditions: Homo sapiens, SW1088, 72 h, read-out: IC50 SW1088
Description: as §3

[6] = tested on: NUGC4, HUH-6, NUGC3, HUH-7, SW1088, BXPC-3, WI38 cells; experiment: Cell viability across all cell lines tested; format: cell-based, human; conditions: 72 h treatment; 60 and MB710: at concentrations up to 60 μM
Description: as §1, §2

[7] = tested on: HUH-7 and HUH-7 p53-Y220C KO cells; experiment: Cell viability, HUH-7 versus isogenic HUH-7 p53-Y220C KO; format: cell-based, human; conditions: 72 h, at higher compound concentration than MB725
Description: To confirm that MB725 mediated anticancer effects are dependent on p53-Y220C, we additionally tested the compound in HUH-7 and an in-house CRISPR generated isogenic p53-Y220C knock-out (KO) HUH-7 cell line (Fig. 8). This new cell line contains a frameshift mutation at codon 124 on one allele and deletion of amino acids 125–223 on the other allele, leading to functional inactivation of the p53 DNA-binding domain (aa 92–292). MB725 decreased cell viability by ca. 30–40% more potently in HUH-7 than in the isogenic HUH-7 p53-Y220C KO (Fig. 8, upper panel).
Fig. 8 Assessment of p53-Y220C dependent effect of MB725. Treatment of HUH-7 (p53-Y220C) and HUH-7 p53-Y220C KO cell lines with MB725 for 72 h underscores the enhanced cytotoxicity of MB725 in the presence of p53-Y220C (left panel). […] Cell viability was measured in quadruplicate and normalized against the values of blank (viability = 1) and no cell (viability = 0) controls (left panel). […] Relative mRNA fold-change was measured in triplicate and normalized against untreated sample according to the ΔΔCt method. […]
WI-38 and BXPC-3 (p53-Y220C) cell lines were purchased from ATCC and HUH-7 (p53-Y220C+/+), HUH-6 (wild-type p53+/+). […] Cell viability was measured in quadruplicate (technical replicates) using the CellTiter-Fluor or CellTiter-Glo 2.0 cell viability assay kits (Promega, USA) as previously described. […]

Compound	ΔTm at 250 µM [4] [°C]	Kd [5] [µM]	also measured
O=C(O)c1cc(I)cc(I)c1O [Compound 4, 2-hydroxy-3,5-diiodobenzoic acid, reference compound]			solubility (in words) [1]: water soluble
Cn1cc(-c2ccccc2)c(-n2cccc2)n1 [Compound 2]			IC50 [2]: ~120 µM; IC50 (NUGC3 cells (p53-Y220C)): 43 µM; IC50 [3]: > 120 µM; IC50 (BXPC-3 cells (p53-Y220C)): 57 µM
CN1CCN(C(=O)c2cc(I)c(-n3cccc3)c(I)c2O)CC1 [Compound 11, (2-hydroxy-3,5-diiodo-4-(1H-pyrrol-1-yl)phenyl)(4-methylpiperazin-1-yl)methanone]	1.2	30	
CCN(CC)c1nc2c(C(=O)OC)c(O)c(I)c(-n3cccc3)c2s1 [Compound 71, Methyl 2-(diethylamino)-5-hydroxy-6-iodo-7-(1H-pyrrol-1-yl)benzo[d]thiazole-4-carboxylate]			solubility (in words) [1]: reduced solubility
O=C(O)c1cc(I)c(-n2cccc2)c(I)c1O [Compound 9, 2-hydroxy-3,5-diiodo-4-(1H-pyrrol-1-yl)benzoic acid]			fold more potent than parent fragment 4 (p53 cancer mutant Y220C): 40 fold
O=C(O)c1cc(-c2ccc(F)cc2)c(-n2cccc2)c(I)c1O [Compound 34, 4'-fluoro-4-hydroxy-5-iodo-6-(1H-pyrrol-1-yl)-[1,1'-biphenyl]-3-carboxylic acid]	0.8	113	
CN(C)CCNC(=O)c1cc(I)c(-n2cccc2)c(I)c1O [Compound 10, N-(2-(dimethylamino)ethyl)-2-hydroxy-3,5-diiodo-4-(1H-pyrrol-1-yl)benzamide]	1.3		solubility (in words) [1]: substantially less soluble than carboxylic acid 9
CCN(CC)C1CCN(Cc2cc(C#CCNc3ccccc3)cc(I)c2O)CC1 [Compound 3]			IC50 [2]: 7 µM; IC50 (NUGC3 cells (p53-Y220C)): 6 µM; IC50 [3]: 9 µM; IC50 (BXPC-3 cells (p53-Y220C)): 11 µM
O=c1[nH][nH]c2c(I)c(-n3cccc3)c(I)cc12 [Compound 21, 5,7-diiodo-6-(1H-pyrrol-1-yl)-1,2-dihydro-3H-indazol-3-one]	1.5	50	
O=C(NO)c1cc(I)c(-n2cccc2)c(I)c1O [Compound 15, N,2-dihydroxy-3,5-diiodo-4-(1H-pyrrol-1-yl)benzamide]	0.8	139	
CNC(=O)c1cc(I)c(-n2cccc2)c(I)c1O [Compound 12, 2-hydroxy-3,5-diiodo-N-methyl-4-(1H-pyrrol-1-yl)benzamide]	0.9	70	solubility (in words) [1]: substantially less soluble than carboxylic acid 9
COC(=O)c1cc(I)c(-n2cccc2)c(I)c1O [Compound 8, Methyl 2-hydroxy-3,5-diiodo-4-(1H-pyrrol-1-yl)benzoate]	-0.1		
CN(C)Cc1cc(I)c(-n2cccc2)c(I)c1O [Compound 17, 6-((dimethylamino)methyl)-2,4-diiodo-3-(1H-pyrrol-1-yl)phenol]	0.9	60	
COc1ccc(-c2cc(C(=O)O)c(O)c(I)c2-n2cccc2)cc1 [Compound 35, 4-hydroxy-5-iodo-4'-methoxy-6-(1H-pyrrol-1-yl)-[1,1'-biphenyl]-3-carboxylic acid]	1	122	
CC(C)COc1cc(C(=O)O)c(O)c(I)c1-n1cccc1 [Compound 56, 2-hydroxy-3-iodo-5-isobutoxy-4-(1H-pyrrol-1-yl)benzoic acid]	1.4	30	
O=C(O)c1cc(-c2ccccc2)c(-n2cccc2)c(I)c1O [Compound 33, 4-hydroxy-5-iodo-6-(1H-pyrrol-1-yl)-[1,1'-biphenyl]-3-carboxylic acid]	1	306	

Second part, led by results:

ΔTm at 250 µM [4] [°C]	Kd [5] [µM]	Compound	also measured
2	4	CCN(CC)c1nc2c(C(=O)O)c(O)c(I)c(-n3cccc3)c2s1 [Compound 70, 2-(diethylamino)-5-hydroxy-6-iodo-7-(1H-pyrrol-1-yl)benzo[d]thiazole-4-carboxylic acid]	IC50 [2]: > 120 µM; IC50 (SW1088 cells (p53-R273C)): > 120 µM; IC50 (NUGC3 cells (p53-Y220C)): 90 µM; fold increase in affinity compared to starting fragment 4 ([5]; Kd ratio): 200 fold; IC50 [3]: ~120 µM; toxicity and selectivity across cell lines (in words) [6]: relatively low toxicity against all cell lines tested; viability reduction HUH-7 versus HUH-7 p53-Y220C KO (in words) [7]: stronger viability reduction in HUH-7 cells than in HUH-7 p53-Y220C KO cells
1.4	108	O=C(O)c1cc(OCCC(F)(F)F)c(-n2cccc2)c(I)c1O [Compound 53, 2-hydroxy-3-iodo-4-(1H-pyrrol-1-yl)-5-(3,3,3-trifluoropropoxy)benzoic acid]	
1.8	33	C=CCOc1cc(C(=O)O)c(O)c(I)c1-n1cccc1 [Compound 51, 5-(allyloxy)-2-hydroxy-3-iodo-4-(1H-pyrrol-1-yl)benzoic acid]	
1.3	63	CCOc1cc(C(=O)O)c(O)c(I)c1-n1cccc1 [Compound 49, 5-ethoxy-2-hydroxy-3-iodo-4-(1H-pyrrol-1-yl)benzoic acid]	times less potent than the parent iodine ([5]; Kd ratio versus parent iodine (21 μM)): 3
1	116	O=C(O)c1cc(OCCc2ccccc2)c(-n2cccc2)c(I)c1O [Compound 55, 2-hydroxy-3-iodo-5-phenethoxy-4-(1H-pyrrol-1-yl)benzoic acid]	
0.6	726	O=C(O)c1cc(OCCO)c(-n2cccc2)c(I)c1O [Compound 54, 2-hydroxy-5-(2-hydroxyethoxy)-3-iodo-4-(1H-pyrrol-1-yl)benzoic acid]	
